Results as given in patent US20190380986A1, “METHOD FOR PRODUCING EXTRACTS ENRICHED WITH SULFOXIDE-FREE ORGANOSULFUR COMPOUNDS, S-ALKENYL-LCYSTEINE AND S-ALKYL-LCYSTEINE, FROM PLANT RAW MATERIALS, AND USES THEREOF IN THE TREATMENT OF INFLAMMATORY DISEASES” (CANVAX BIOTECH, S.L, priority 2017, published 2019).
Entries after “also recorded” stand apart in the source; their conditions may differ. Counter-ions that a name gives are not always drawn.

Key:
Type in all cases: in vivo, Dark Agouti rats
[1] = tested on: GSH/GSSG ratio and lipoperoxides (LPO); experiment: Biomarkers of oxidative stress (LPO, GSH/GSSG ratio) in brain and spinal cord of EAE rats; conditions: FIG. 4; for GSH/GSSG ratio in brain and spinal cord: Example 3, end of study (35 days), NAC and SAC oral 50 mg/kg, versus untreated EAE
Excerpt: (§1) 70 Dark Agouti rats were used, 35 females and 35 males. Each group of 10 animals had 5 male rats housed in individual boxes and 5 females equally maintained in individual boxes. The following groups were included: i) Controls (untreated healthy animals); ii) vehicle (animals injected in the tail with 100 microlitres of Freund's complete adjuvant (FCA) but without the EAE-inducing peptide, the MOG peptide ([…]); iii) EAE (animals injected once into the tail with 150 μg of MOG (Sigma-Aldrich) in 100 microlitres of FCA); iv) EAE+dimethyl fumarate (EAE+DMF); v) EAE+N-acetyl cysteine (EAE+NAC); and vi) EAE+SAC. The treatments with NAC and SAC were administered to the animals orally using a probe and at a dose of 50 mg/kg of animal weight.
At the end of the study, the animals were decapitated at a controlled temperature using intraperitoneal anaesthesia with ketamine 75 mg/kg (Imalgene 100 mg/ml, Merial Laboratories, Barcelona, Spain). The brains, blood and spinal cord were extracted, weighed and homogenized with a mechanical homogenizer (Tempest Virtis), using 20 mM Tris at pH 7.4 as a buffer. The samples were centrifuged cold and the supernatants were immediately collected and stored at −80° C.
Total protein levels were quantified by the Bradford method and referenced to the original tissue weight. Oxidative stress parameters such as lipid peroxidation (LPO), total glutathione (tG) and reduced glutathione (GSH) were then measured in blood, brain and spinal cord using kits from Bioxytech SA (Oxis International, Portland, Oreg., USA): LPO-586, GSH-420 and GSH-400, respectively. Oxidised glutathione levels (GSSG) were calculated by subtracting reduced glutathione from total glutathione and the GSH/GSSG ratio was calculated.
(§2) The statistical analysis was performed with the SPSS program (SPSS Ibérica, Madrid, Spain). The data are reported as mean±standard deviation (SD). […] To analyse the correlation between the biochemical parameters and the mobility of the animals at 35 days (Clinical assessment-35), Spearman's rho correlation coefficient was used. The level of statistical significance was established at p<0.05.

[2] = tested on: EAE (experimental autoimmune encephalomyelitis); experiment: Clinical assessment of mobility in rats with EAE induced by MOG/FCA; conditions: for Change in the clinical assessment of mobility between day 35 and day 14: Example 3, NAC and SAC oral 50 mg/kg, treatment for 21 days, FIG. 3; for Change in the clinical assessment of mobility between days 35 and 14: FIG. 5
Method: Next, an experiment was designed to study the effect of SAC in rats with EAE (experimental autoimmune encephalomyelitis), a model of multiple sclerosis widely used for the development of new treatments for this neurodegenerative disease in humans. To evaluate the effect of this compound on the disease, the change in clinical parameters of mobility in each of the joints and in the tail (clinical score or clinical assessment) was measured, as well as the biomarkers of oxidative stress that explain the change in joint mobility in rats.
as §1
The mobility of the rats was evaluated using the method described by Pérez-Nievas (Pérez-Nievas, 2010) in which 0 is equivalent to not having any affected joint or tail; 1 equals paralysis in the tail; 2 equals partial mobility in the hind legs; 3 equals paralysis in the hind legs; 4 equals paralysis in the hind legs and partial mobility in the front legs and 5 equals a dying animal or that must be sacrificed for ethical reasons.
as §2
Next, an experiment was designed to study whether the effect of NAC and SAC were different depending on the dose administered in animal models of EAE. For this, the change in clinical parameters of mobility in each of the joints and the tail (clinical score or clinical assessment) was measured at 2 different doses of NAC and SAC; 18 mg/kg and 50 mg/kg administered orally for 5 days a week and following the same experimental design as Example 3.
(§3) 70 Dark Agouti rats, 35 females and 35 males, were used. Each group of 10 animals had 5 male rats housed in individual boxes and 5 females equally maintained in individual boxes. The following groups were included: i) Controls (untreated healthy animals); ii) vehicle (animals injected in the tail with 100 microlitres of Freund's complete adjuvant (FCA) but without the EAE-inducing peptide, the MOG peptide; iii) EAE (animals injected 1 time in the tail with 150 μg of MOG (Sigma-Aldrich) in 100 microlitres of FCA); iv) EAE+N-acetyl cysteine at 18 mg/kg (EAE+NAC18); v) EAE+N-acetyl cysteine at 50 mg/kg (EAE+NACSO); vi) EAE+SAC at 18 mg/kg (EAE+SAC18) and vii) EAE+SAC at 50 mg/kg (EAE+SAC50). The treatments with NAC and SAC were administered to the animals orally 5 days a week at a dose of 18 mg/kg or 50 mg/kg of the animal's weight.
The analysis of the mobility of the animals, their sacrifice, tissue management, determination of the total proteins and the statistical analysis, was carried out as previously described in Example 3.

[3] = tested on: LPS (bacterial lipopolysaccharide); experiment: LPS levels (LAL chromogenic endotoxin kit) in blood and spinal cord of EAE rats; conditions: Example 4, 50 mg/kg orally, SAC compared to NAC at the same concentration, FIG. 7
Method: as §3, with “weight. […]” for “weight.”
(§4) The measurement of lipopolysaccharide-binding soluble lipoprotein (LBP) levels was performed with the LBP soluble ELISA Kit (Enzo®, USA), in a sandwich ELISA system following the manufacturer's instructions. The levels of lipopolysaccharide (LPS) in blood and spinal cord were measured with the Pierce LAL Chromogenic endotoxin quantification kit supplied by Thermo Scientific (USA), following the manufacturer's instructions.® The data are presented as endotoxin units per milligram of tissue protein.

[4] = tested on: LBP (lipopolysaccharide binding protein); experiment: Soluble LBP levels (ELISA) in brain, spinal cord and blood of EAE rats; conditions: authors' observation in the background section
Method: as §3, with “weight. […]” for “weight.”
as §4

[5] = Example 4, 18 mg/kg orally 5 days a week
[6] = Example 4, 50 mg/kg orally 5 days a week

SMILES | GSH/GSSG ratio in brain and spinal cord [1] | Change in the clinical assessment of mobility between day 35 and day 14 [2] | Levels of LPS in blood and spinal cord [3] | Oxidative damage induced by MOG/FCA (LPO, GSH/GSSG), SAC compared with NAC ([1]; Example 3, oral 50 mg/kg, 35 days) | Change in the clinical assessment of mobility between days 35 and 14 [2, 5] | Change in the clinical assessment of mobility between days 35 and 14 [2, 6] | Level of LBP after administration in animal models (pro-inflammatory effect) [4]
COC(=O)/C=C/C(=O)OC [DMF, dimethyl fumarate] | increased the GSH/GSSG ratio with respect to untreated animals (EAE); also recorded: induces an increase in the GSH/GSSG ratio | showed a reduction of the clinical assessment of mobility between day 35 and 14 | – | – | – | – | –
C=CCSC[C@H](N)C(=O)O [SAC, S-allyl-L-cysteine] | increased the GSH/GSSG ratio with respect to untreated animals (EAE); also recorded: induces an increase in the GSH/GSSG ratio | showed a reduction of the clinical assessment of mobility between day 35 and 14 | significantly reduced the levels of LPS in blood and spinal cord compared to NAC | more effective than NAC in minimising oxidative damage induced by MOG/FCA; also recorded: corrects the oxidative damage induced by MOG/FCA to a higher percentage than the NAC | caused a reduction in the clinical assessment of mobility equivalent to that caused by 50 mg/kg of NAC or SAC | equally effective with respect to the group of animals with EAE without treatment | –
CC(=O)N[C@@H](CS)C(=O)O [NAC, N-acetylcysteine] | increased the GSH/GSSG ratio with respect to untreated animals (EAE); also recorded: induces an increase in the GSH/GSSG ratio | showed a reduction of the clinical assessment of mobility between day 35 and 14 | – | – | did not cause a reduction of the clinical assessment of mobility between days 35 and 14 | equally effective with respect to the group of animals with EAE without treatment | the level of LBP (lipopolysaccharide binding protein) increases
